Experimental data: ChEMBL document CHEMBL5291721, “A preclinical secondary pharmacology resource illuminates target-adverse drug reaction associations of marketed drugs” (Nat Commun, 2023)

What was measured:
Melanocortin receptor 3 = Melanocortin receptor 3 (Homo sapiens, UniProt P41968)
[1] = target: T1, Neuropeptide Y receptor type 1 (Homo sapiens, UniProt P25929)
T1 sequence (P25929 whole entry): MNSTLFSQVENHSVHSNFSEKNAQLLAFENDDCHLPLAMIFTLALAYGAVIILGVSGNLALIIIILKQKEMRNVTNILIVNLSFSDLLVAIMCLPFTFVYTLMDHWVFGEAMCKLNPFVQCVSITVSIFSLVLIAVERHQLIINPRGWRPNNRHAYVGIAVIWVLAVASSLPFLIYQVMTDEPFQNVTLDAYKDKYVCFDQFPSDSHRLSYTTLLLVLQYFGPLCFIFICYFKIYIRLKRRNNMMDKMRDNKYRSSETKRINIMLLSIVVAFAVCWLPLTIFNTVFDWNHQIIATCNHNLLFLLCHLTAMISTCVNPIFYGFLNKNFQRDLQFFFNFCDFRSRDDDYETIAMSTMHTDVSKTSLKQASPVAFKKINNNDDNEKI

Progesterone receptor = target: T2, Progesterone receptor (Homo sapiens, UniProt P06401); type: functional
T2 sequence (P06401 whole entry): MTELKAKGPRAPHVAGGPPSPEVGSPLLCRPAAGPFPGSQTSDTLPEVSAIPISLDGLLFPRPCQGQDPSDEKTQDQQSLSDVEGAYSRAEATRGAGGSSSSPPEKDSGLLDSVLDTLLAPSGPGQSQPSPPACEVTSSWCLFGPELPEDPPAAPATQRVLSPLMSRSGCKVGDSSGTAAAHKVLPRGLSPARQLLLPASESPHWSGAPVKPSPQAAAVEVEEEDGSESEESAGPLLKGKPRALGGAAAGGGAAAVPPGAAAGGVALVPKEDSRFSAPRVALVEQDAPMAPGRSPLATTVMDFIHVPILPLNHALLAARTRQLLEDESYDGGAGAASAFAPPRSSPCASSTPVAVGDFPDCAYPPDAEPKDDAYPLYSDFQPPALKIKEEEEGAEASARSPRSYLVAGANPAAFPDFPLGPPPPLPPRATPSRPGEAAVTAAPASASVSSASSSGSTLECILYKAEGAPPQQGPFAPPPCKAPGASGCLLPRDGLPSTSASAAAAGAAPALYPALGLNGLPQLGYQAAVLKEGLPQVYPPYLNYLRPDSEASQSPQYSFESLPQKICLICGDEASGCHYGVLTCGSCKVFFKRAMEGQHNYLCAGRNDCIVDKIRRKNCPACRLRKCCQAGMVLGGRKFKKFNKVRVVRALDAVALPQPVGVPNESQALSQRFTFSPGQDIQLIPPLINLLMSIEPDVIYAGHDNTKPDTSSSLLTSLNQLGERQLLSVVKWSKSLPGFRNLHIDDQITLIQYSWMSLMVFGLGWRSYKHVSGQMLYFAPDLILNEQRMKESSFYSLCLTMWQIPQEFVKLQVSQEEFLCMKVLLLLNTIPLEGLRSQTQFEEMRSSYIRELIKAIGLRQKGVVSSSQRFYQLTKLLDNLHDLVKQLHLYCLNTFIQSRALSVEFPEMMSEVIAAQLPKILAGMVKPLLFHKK

Adenosine receptor A3 = target: T3, Adenosine receptor A3 (Homo sapiens, UniProt P0DMS8)
T3 sequence (P0DMS8 whole entry): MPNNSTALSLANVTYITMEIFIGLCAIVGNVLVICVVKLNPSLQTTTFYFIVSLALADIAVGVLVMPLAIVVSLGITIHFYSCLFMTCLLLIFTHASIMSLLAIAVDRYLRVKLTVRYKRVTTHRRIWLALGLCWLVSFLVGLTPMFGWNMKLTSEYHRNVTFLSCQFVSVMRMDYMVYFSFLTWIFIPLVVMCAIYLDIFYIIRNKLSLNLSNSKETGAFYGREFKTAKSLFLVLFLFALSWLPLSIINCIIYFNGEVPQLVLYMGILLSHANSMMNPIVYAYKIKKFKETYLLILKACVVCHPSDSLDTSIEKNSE

Motilin receptor = Motilin receptor (Homo sapiens, UniProt O43193)
Motilin receptor, sequence (O43193 whole entry): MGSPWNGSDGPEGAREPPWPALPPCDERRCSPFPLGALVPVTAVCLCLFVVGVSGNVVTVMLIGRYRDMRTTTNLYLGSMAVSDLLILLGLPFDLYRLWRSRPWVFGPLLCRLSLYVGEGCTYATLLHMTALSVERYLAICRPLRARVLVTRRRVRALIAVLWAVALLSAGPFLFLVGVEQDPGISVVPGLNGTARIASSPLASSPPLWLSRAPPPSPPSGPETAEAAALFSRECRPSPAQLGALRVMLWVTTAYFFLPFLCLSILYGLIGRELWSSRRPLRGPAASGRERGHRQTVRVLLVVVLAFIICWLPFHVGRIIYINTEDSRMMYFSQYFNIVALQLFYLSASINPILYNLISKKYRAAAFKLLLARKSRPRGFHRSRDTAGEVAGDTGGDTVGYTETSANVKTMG

Mu-type opioid receptor = Mu-type opioid receptor (Homo sapiens, UniProt P35372)
Mu-type opioid receptor, sequence (P35372 whole entry): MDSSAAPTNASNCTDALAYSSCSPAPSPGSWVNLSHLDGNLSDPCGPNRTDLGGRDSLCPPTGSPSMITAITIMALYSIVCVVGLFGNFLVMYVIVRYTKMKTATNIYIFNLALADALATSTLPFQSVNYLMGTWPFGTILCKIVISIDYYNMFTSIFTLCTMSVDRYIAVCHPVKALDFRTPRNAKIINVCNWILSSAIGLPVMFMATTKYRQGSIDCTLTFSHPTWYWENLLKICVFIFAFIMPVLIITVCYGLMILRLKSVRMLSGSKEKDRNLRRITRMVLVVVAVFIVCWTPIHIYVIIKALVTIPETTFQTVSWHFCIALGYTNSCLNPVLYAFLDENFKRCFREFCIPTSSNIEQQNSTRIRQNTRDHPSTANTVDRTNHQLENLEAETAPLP

[2] = target: T4, 5-hydroxytryptamine receptor 3A (Homo sapiens, UniProt P46098); type: functional
T4 sequence (P46098 whole entry): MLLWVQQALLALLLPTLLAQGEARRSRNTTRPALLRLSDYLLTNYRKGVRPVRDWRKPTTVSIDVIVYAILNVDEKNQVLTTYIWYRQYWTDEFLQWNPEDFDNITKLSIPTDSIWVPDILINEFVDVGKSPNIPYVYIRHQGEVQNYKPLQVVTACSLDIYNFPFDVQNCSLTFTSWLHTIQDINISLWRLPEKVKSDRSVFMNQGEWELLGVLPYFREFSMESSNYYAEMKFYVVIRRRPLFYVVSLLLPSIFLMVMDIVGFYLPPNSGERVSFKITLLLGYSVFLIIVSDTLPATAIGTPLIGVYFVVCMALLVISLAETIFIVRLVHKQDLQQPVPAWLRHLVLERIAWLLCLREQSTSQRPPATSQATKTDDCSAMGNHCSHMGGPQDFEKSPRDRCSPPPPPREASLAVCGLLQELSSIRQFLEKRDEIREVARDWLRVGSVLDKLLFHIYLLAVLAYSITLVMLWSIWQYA

Cannabinoid receptor 1 = Cannabinoid receptor 1 (Homo sapiens, UniProt P21554); type: functional, cell-based
Cannabinoid receptor 1, sequence (P21554 whole entry): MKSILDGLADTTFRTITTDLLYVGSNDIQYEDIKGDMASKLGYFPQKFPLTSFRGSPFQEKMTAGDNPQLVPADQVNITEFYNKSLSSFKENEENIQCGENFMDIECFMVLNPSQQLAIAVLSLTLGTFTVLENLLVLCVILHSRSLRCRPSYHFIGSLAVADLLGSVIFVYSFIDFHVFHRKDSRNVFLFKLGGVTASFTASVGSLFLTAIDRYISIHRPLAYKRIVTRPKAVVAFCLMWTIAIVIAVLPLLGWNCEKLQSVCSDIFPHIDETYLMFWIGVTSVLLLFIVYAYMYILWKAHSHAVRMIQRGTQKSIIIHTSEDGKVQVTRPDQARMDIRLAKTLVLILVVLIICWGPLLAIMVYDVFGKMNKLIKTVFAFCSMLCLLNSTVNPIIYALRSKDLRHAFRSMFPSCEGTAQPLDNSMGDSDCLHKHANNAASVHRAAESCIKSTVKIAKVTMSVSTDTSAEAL

B2 bradykinin receptor = target: T5, B2 bradykinin receptor (Homo sapiens, UniProt P30411)
T5 sequence (P30411 whole entry): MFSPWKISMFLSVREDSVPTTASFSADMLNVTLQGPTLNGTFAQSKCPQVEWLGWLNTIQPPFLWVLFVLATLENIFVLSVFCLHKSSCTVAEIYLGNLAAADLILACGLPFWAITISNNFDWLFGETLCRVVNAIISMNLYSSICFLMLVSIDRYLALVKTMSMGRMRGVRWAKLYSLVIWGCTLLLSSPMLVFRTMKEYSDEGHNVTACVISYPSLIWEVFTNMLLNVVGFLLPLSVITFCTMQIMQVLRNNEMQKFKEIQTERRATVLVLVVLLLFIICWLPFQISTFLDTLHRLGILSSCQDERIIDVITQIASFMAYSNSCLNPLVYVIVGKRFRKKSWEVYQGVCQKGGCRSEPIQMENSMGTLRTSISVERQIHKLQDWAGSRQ

[3] = target: Beta-1 adrenergic receptor (Homo sapiens, UniProt P08588); type: functional
Beta-1 adrenergic receptor, sequence (P08588 whole entry): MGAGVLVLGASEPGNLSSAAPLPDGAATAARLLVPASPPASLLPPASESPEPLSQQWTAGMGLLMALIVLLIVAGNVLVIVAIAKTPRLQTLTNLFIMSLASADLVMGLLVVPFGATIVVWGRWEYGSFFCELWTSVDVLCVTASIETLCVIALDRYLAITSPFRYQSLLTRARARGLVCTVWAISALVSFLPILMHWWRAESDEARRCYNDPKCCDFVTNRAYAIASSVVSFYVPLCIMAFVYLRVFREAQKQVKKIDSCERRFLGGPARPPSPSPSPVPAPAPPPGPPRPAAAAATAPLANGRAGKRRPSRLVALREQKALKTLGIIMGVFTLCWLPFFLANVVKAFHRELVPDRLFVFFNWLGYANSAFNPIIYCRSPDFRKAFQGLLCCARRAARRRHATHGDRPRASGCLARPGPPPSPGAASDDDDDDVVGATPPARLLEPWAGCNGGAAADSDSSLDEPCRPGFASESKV

[4] = target: Glutamate receptor ionotropic, NMDA 1 (Rattus norvegicus, UniProt P35439)
Note: assay procedure not described here.

Melanocortin receptor 3, sequence (P41968 whole entry): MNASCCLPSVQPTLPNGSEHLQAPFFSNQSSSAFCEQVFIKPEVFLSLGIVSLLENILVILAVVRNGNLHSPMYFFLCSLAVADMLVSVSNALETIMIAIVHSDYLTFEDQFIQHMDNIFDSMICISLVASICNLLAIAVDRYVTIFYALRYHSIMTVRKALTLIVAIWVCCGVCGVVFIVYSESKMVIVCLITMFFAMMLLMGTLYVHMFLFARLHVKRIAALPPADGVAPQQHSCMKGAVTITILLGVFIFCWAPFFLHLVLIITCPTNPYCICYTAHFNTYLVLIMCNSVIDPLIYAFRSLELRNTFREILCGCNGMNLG

| Compound | AC50 (Melanocortin receptor 3) [µM] | AC50 [1] [µM] | AC50 (Progesterone receptor) [µM] | AC50 (Adenosine receptor A3) [µM] | AC50 (Motilin receptor) [µM] | AC50 (Mu-type opioid receptor) [µM] | AC50 [2] [µM] | AC50 (Cannabinoid receptor 1) [µM] | AC50 (B2 bradykinin receptor) [µM] | AC50 [3] [µM] | AC50 [4] [µM] |
| --- | --- | --- | --- | --- | --- | --- | --- | --- | --- | --- | --- |
| CCOc1nc2cccc(C(=O)O)c2n1Cc1ccc(-c2ccccc2-c2nnn[nH]2)cc1 | > 30 | > 10 | > 30 | > 30 | > 30 | > 30 | > 30 | > 30 | > 30 | > 30 | – |
| CCCc1nc2c(C)cc(-c3nc4ccccc4n3C)cc2n1Cc1ccc(-c2ccccc2C(=O)O)cc1 | > 30 | > 30 | > 30 | 18.3 | > 30 | 10.8 | > 30 | > 10 | > 30 | > 30 | > 30 |
| CCOc1cc([C@@H](CS(C)(=O)=O)N2C(=O)c3cccc(NC(C)=O)c3C2=O)ccc1OC | > 30 | – | > 30 | > 30 | > 30 | > 30 | > 30 | > 30 | – | > 30 | – |
| Cc1nnc(SCC2=C(C(=O)O)N3C(=O)[C@@H](NC(=O)Cn4cnnn4)[C@H]3SC2)s1 [CEFAZOLIN] | > 300 | > 30 | > 300 | > 300 | > 300 | > 300 | > 300 | > 300 | > 30 | > 300 | > 30 |
| Cc1nc(Nc2ncc(C(=O)Nc3c(C)cccc3Cl)s2)cc(N2CCN(CCO)CC2)n1 [DASATINIB] | > 30 | > 30 | > 30 | 21.5 | > 30 | > 30 | > 30 | > 30 | > 30 | > 30 | > 10 |
| CC(C)Cc1ccc([C@H](C)C(=O)O)cc1 [DEXIBUPROFEN] | > 30 | – | > 30 | > 30 | > 30 | > 30 | > 30 | > 30 | – | > 30 | – |
| O=C(O)Cc1ccccc1Nc1c(Cl)cccc1Cl [DICLOFENAC] | > 30 | > 30 | – | > 30 | > 10 | > 30 | > 10 | > 30 | > 30 | > 10 | > 10 |
| O=C(O)Cc1ccccc1Oc1ccc(Cl)cc1Cl [FENCLOFENAC] | > 30 | > 30 | – | > 30 | > 10 | > 30 | > 30 | > 30 | > 30 | > 10 | > 10 |
| Cc1onc(-c2c(F)cccc2Cl)c1C(=O)N[C@@H]1C(=O)N2[C@@H]1SC(C)(C)[C@@H]2C(=O)O [FLOXACILLIN] | > 30 | – | > 30 | > 30 | > 30 | > 30 | > 30 | > 30 | – | > 30 | – |
| Cc1ccc(C)c(OCCCC(C)(C)C(=O)O)c1 [GEMFIBROZIL] | > 30 | > 30 | – | > 30 | > 10 | > 30 | > 30 | > 30 | > 30 | > 10 | > 10 |
| COc1cc(C(C)=O)ccc1OCCCN1CCC(c2noc3cc(F)ccc23)CC1 [ILOPERIDONE] | > 30 | – | > 30 | > 30 | > 30 | 10 | > 30 | > 30 | – | > 30 | – |
| CC[C@H](C)C(=O)O[C@H]1C[C@@H](C)C=C2C=C[C@H](C)[C@H](CC[C@@H]3C[C@@H](O)CC(=O)O3)[C@H]21 [LOVASTATIN] | > 30 | > 30 | – | 28.5 | > 10 | > 30 | > 30 | > 30 | > 30 | > 10 | > 10 |
| CN1Cc2c(N)cccc2C(c2ccccc2)C1 (centres undefined) [NOMIFENSINE] | > 30 | > 30 | > 30 | > 30 | > 30 | 4.4 | > 30 | > 30 | > 30 | – | > 30 |
| CN(CCOc1ccc(CC2SC(=O)NC2=O)cc1)c1ccccn1 (centres undefined) [ROSIGLITAZONE] | 20.8 | > 30 | > 30 | > 30 | > 30 | > 10 | > 30 | > 30 | > 30 | > 30 | > 30 |
| S=P(N1CC1)(N1CC1)N1CC1 [THIOTEPA] | > 30 | – | > 30 | > 30 | > 30 | 28 | > 30 | > 30 | – | > 30 | – |
| CC(C)[C@H](N)C(=O)OCCOCn1cnc2c(=O)[nH]c(N)nc21 [VALACYCLOVIR] | > 30 | > 30 | – | > 30 | > 10 | > 30 | > 30 | > 30 | > 30 | > 10 | > 10 |
| O=C1Cc2cc(CCN3CCN(c4nsc5ccccc45)CC3)c(Cl)cc2N1 [ZIPRASIDONE] | > 30 | > 30 | – | > 30 | > 10 | > 30 | > 10 | > 30 | > 30 | > 10 | > 10 |
